Test results reported in patent US20190099413A1, “DRUG FOR CANCER THERAPY CHARACTERIZED IN THAT AXL INHIBITOR AND IMMUNE CHECKPOINT INHIBITOR ARE ADMINISTERED IN COMBINATION” (ONO PHARMACEUTICAL CO., LTD., priority 2016, published 2019).

Tested on: mouse colon cancer cell line MC38
Experiment: Anti-tumor action on mouse colon cancer cell line MC38 subcutaneous cancer-bearing model
Assay type: in vivo
Settings: for average volume of tumors on day 14: C57/BL6 mice; for Number of cases where tumor was eliminated: observed until 28th day, cases/n; for mice in which cancer had been eliminated: single administration or combined use with 4H2
Description: Biological Example 1: Evaluation of Anti-Tumor Action by Combined Use of Compound A and Anti-PD-1 Antibody on Mouse Colon Cancer Cell Line MC38 Subcutaneous Cancer-Bearing Model (In Vivo)
For the compound A, mouse feed CRF-1 containing 0.0013% or 0.013% compound A was manufactured by Oriental Yeast Co., Ltd. so as to be administered at a dose of 2 or 20 mg/kg/day via diet. 4H2 as the anti-mouse PD-1 antibody, which had been prepared in KITAYAMA LABES CO., LTD., was obtained. C57/BL6 mouse colon cancer cell line MC38 was subcutaneously transplanted into dorsal parts of […] syngeneic mice (C57/BL6, female, 6 weeks old (Charles River Laboratories Japan, Inc.)) to produce MC38 subcutaneous cancer-bearing mice. On the day when the average of tumor volumes reached 150 mm^3, group assignment was carried out based on the tumor volumes (the day on which administration was started was defined as Day 0). To the MC38 subcutaneous cancer-bearing mice, PBS (on days 0, 6, 12, 18, and 24, intraperitoneal administration, n=9), 4H2 (on Day 0, 20 mg/kg/day and on days 6, 12, 18, and 24, 10 mg/kg/day, intraperitoneal administration, n=8), the compound A (on days 0 to 28, 2 mg/kg, administration via diet (n=9)), the compound A (on days 0 to 28, 20 mg/kg, administration via diet (n=9)), combined use of 4H2 and the compound A (compound A, 2 mg/kg (n=9)), and combined use of 4H2 and the compound A (compound A, 20 mg/kg (n=9)) were administered. Change of the volume of tumor was observed continuously until the 28th day. Note here that, from the viewpoint of the animal ethics, a mouse whose tumor exceeded 3000 mm^3 in volume was euthanatized, and evaluation for the group to which the euthanatized mouse belonged was stopped at this point.

## COc1cc2nccc(Oc3ccc(NC(=O)c4cc5c(n(-c6ccccc6)c4=O)CCCC5=O)nc3)c2cc1OC [Compound A, N-{5-[(6,7-dimethoxy-4-quinolinyl)oxy]-2-pyridinyl}-2,5-dioxo-1-phenyl-1,2,5,6,7,8-hexahydro-3-quinolinecarboxamide]
Compound A 2 mg/kg via diet days 0 to 28, alone or combined with 4H2 (20 then 10 mg/kg/day i.p.)
  average volume of tumors on day 14: 1379.5 mm^3
Compound A 2 mg/kg via diet days 0 to 28, alone or combined with 4H2
  Number of cases where tumor was eliminated: 1/9
Compound A 2 mg/kg
  mice in which cancer had been eliminated: one
Compound A 20 mg/kg via diet days 0 to 28, alone or combined with 4H2 (20 then 10 mg/kg/day i.p.)
  average volume of tumors on day 14: 639.3 mm^3
Compound A 20 mg/kg via diet days 0 to 28, alone or combined with 4H2
  Number of cases where tumor was eliminated: 1/9
Compound A 20 mg/kg
  mice in which cancer had been eliminated: one
